Residues, ends and D or L forms follow the SMILES beside them.

This note sets out measurements from ChEMBL document CHEMBL4811217, “Peptide-based topical agents and intravenous hemostat for rapid hemostasis” (2020).

One assay has as its system Blood. Put plainly: Induction of blood clotting in chicken serum free blood corpuscles assessed as blood clotting time at 1.5 mM by hayem-method. The format is functional, Gallus gallus.
For the next assay, the system named is Plasma. The assay can be described thus: Induction of clotting in chicken plasma assessed as thrombin clotting time at 1.5 mM. The format is functional, Gallus gallus.
The nature of assay [1]: Induction of platelet aggregation in iv dosed Sprague-Dawley rat model of liver injury assessed as reduction in blood loss measured after 30 mins. The format is functional. Details: scale not given: the % may be the effect or the level left. Conditions: 0.5 h.

Take `CC(C)C[C@H](NC(=O)[C@H](Cc1cnc[nH]1)NC(=O)[C@H](Cc1cnc[nH]1)NC(=O)[C@H](CCC(N)=O)NC(=O)[C@@H](N)CCC(N)=O)C(=O)NCC(=O)NCC(=O)N[C@@H](C)C(=O)N[C@@H](CCCCN)C(=O)N[C@@H](CCC(N)=O)C(=O)N[C@@H](C)C(=O)NCC(=O)N[C@@H](CC(=O)O)C(=O)N[C@H](C(=O)O)C(C)C` (H-QQHHLGGAKQAGDV-OH): the Time in the assay on Blood was determined as 51 s; in the assay with Plasma, 35 s.

Consider `CC(C)C[C@H](NC(=O)[C@@H](NC(=O)[C@@H](N)CCCNC(=N)N)[C@@H](C)O)C(=O)N[C@@H](C)C(=O)N[C@@H](Cc1ccccc1)C(=O)N[C@H](C(=O)N[C@@H](CCCNC(=N)N)C(=O)N1CCC[C@H]1C(=O)N[C@@H](CCCCN)C(=O)O)C(C)C` (H-RTLAFVRPK-OH), for which the Activity in assay [1] is reported as 60%.
